The record followed here is paper PMC8878324, “Evaluation of New Antimicrobial Agents Based on tris(1H-Indol-3-yl)methylium Salts: Activity, Toxicity, Suppression of Experimental Sepsis in Mice” (Pharmaceuticals, 2022).

One data set relates to S. aureus 10. In words: Model of staphylococcal sepsis in mice. In kind it is in vivo. Particulars: for Death (%) / Survival Rate (%): 14 days. The protocol: To determine the ability of drugs to suppress staphylococcal sepsis, a clinical isolate of S. aureus 10, lacking drug resistance and adapted for use in animals, was used. Animals, divided into several experimental groups, were intravenously infected with a lethal dose of S. aureus (0.1 mL each) (Groups 1–5). […] Along with the testing of compounds of the trisndolylmethylium class, a similar experiment was carried out with levofloxacin, taken as a reference drug for a separate group of animals (Group 4). The control group of animals received an intravenous injection of 5% glucose solution instead of the tested preparations (Group 5). Another control group, which also received a single injection of 5% glucose solution, consisted of animals that were not exposed to infection (Group 6). To study each drug, 110–150 animals were required, which were divided into small subgroups of 10 mice each to test various doses of the compounds studied. The number of dead animals and the time of their death were recorded daily, and the appearance of the animals and their weight were assessed. The duration of the experiment was 14 days.
The study was conducted on adult female SHK mice (18–20 g) obtained from the animal breeding unit of the FMBA (Scientific Center for Biomedical Technologies of the Federal Biomedical Agency, Moscow, Russia). The animals were randomly divided into groups (n = 6 for the study of acute toxicity, n = 10 (or 8) to study the efficacy of suppressing staphylococcal sepsis). The study of the effectiveness of drugs in the treatment of staphylococcal sepsis required the use of 110–175 mice for each drug, 10 animals per group. The animal study was approved by the Ethics of Animal Experimentation of Gause Institute of New Antibiotics (protocol No 13/2019).
The experiment used a strain of S. aureus 10, having no drug resistance and adapted for use in animals. Initially, the 100% lethal dose (LD100) was determined for this pathogen strain in SHK mice, i.e., the dose of the pathogen at which the death of 100% of the animals was recorded. LD100 dose of staphylococcus detected in the experiment was 8.0 × 10^8 CFU/mouse, which was then used for infecting animals.
The chemotherapeutic efficacy of tris(indolyl)methane derivatives was determined in a model of staphylococcal sepsis in mice. Mice of the SHK colony, weighing 18–20 g, were infected intravenously (into the tail vein) with a lethal dose of staphylococcus (0.1 mL of solution). One hour after infection, mice were injected intravenously (0.2 mL of solution each) with the tested tris(indolyl)methane derivatives in the range of doses from 0.1 to 40 mg/kg. For tested drugs, we used solutions prepared in 5% glucose solution. The study of the effectiveness of each drug was conducted on 115–155 mice (10 mice per group). The duration of the experiment was 14 days. The number of dead animals and the time of their death were recorded daily, and the body weight of the animals was recorded three times a week. Their feed intake was monitored, and clinical signs of animal health were assessed daily.
To determine the effectiveness of the tested drugs, 50% effective doses (ED50) were used, which was determined by the Behrens method (frequency accumulation method), as well as by the Litchfield and Wilcoxon method using the StatPlus 2006 software. For all data, the mean and standard deviation were calculated. The differences were defined as significant at p ≤ 0.05.

The test system of the next data set is HPF-hTERT. Description: Cytotoxic activity, MTT assay. In kind it is cell-based, human. The following applies: 72 h. The protocol: (§1) The cytotoxic activity of the compounds was evaluated on the healthy donor (postnatal) human fibroblasts immortalized by transfection of the hTERT gene of the catalytic component of telomerase (hereinafter HPF-hTERT) that were obtained from N.N. Blokhin Russian Cancer Research Center. HFC-hTERT cells were cultured in Dulbecco’s modified medium (DMEM) containing 2 mM of L-glutamine, 10% fetal calf serum, 100 U/mL of penicillin and 100 μg/mL of streptomycin. Incubation was performed in a humidified atmosphere of 5% CO2 at 37 °C. In the experiment, we used cells in the logarithmic growth phase. To study the cytotoxicity of compounds, 190 μL of cell suspension (~2 thousand cells per well) was added to the wells of 96-well plates and incubated for 16 h. On the day of the experiment, serial dilutions of the test compounds were prepared in DMSO (stock solution—10 mM in 100% DMSO). Further dilutions were conducted in a nutrient medium. The final concentrations of compounds in the experiment were in a concentration range from 0.0025 to 50 μM. The final concentration of DMSO was 1% or less. Each concentration was presented in 3 repetitions. […] The cells were incubated with the test compounds for 72 h. After the end of incubation, 20 μL of MTT solution in growth medium (5 mg/mL) was added to the wells. The cells were incubated for 2 h until a purple color developed, after which the culture medium was removed. DMSO was added to the wells, and the sediment was suspended. Optical density was measured with a Thermo Scientific Multiscan FC spectrophotometer at 570 nm. The values of optical density in wells without addition of test compounds (control) were taken as 100% cell survival. The percentage of survival of cells incubated with the test compounds was calculated by dividing the optical density in the corresponding well (average of 3 independent measurements) by the optical density in the control. The concentration of drugs causing 50% cell death (IC50) was evaluated and expressed in μg/mL.

Data set [1] in a line: Cytotoxic activity, MTT assay. The class given is cell-based, human. The following applies: human, HPF-hTERT. The protocol:
as §1

[2] abbreviates: single i.v. 0.5 mg/kg 1 h after infection.
[3] abbreviates: single i.v. 1.0 mg/kg 1 h after infection.
[4] abbreviates: single i.v. 1.5 mg/kg 1 h after infection.
The mark [5] stands for this setting: single i.v. 1.75 mg/kg 1 h after infection.
Setting [6] is: single i.v. 2.0 mg/kg 1 h after infection.

For `CCCn1cc([C+](c2cn(CCC)c3ccccc23)c2cn(C3=C(N(C)C)C(=O)NC3=O)c3ccccc23)c2ccccc21` [Compound 3, 1-(4-Dimethylamino-2,5-dioxo-2,5-dihydro-1H-pyrrol-3-yl) -1H-indol-3-yl) bis(1-propyl-1H-indol-3-yl) methylium chloride], the ED50 with S. aureus 10 (Staphylococcus aureus, 10, single intravenous administration 1 h after infection, read-out: ED50) turned out to be 1.09 mg/kg. In addition, the “first mortality, day of the experiment” value in the data set on S. aureus 10 (experimental group 3) is 6 to 7 days. For the same compound, the “last death, day of the experiment” value with S. aureus 10 (experimental group 3) is 12 days. Further, the “Death (%)” value in the data set on S. aureus 10 (setting [2]) was found to be 70%; with S. aureus 10 (setting [3]), 50%; in the data set with S. aureus 10 (setting [4]), 40%; with S. aureus 10 (setting [5]), 10%; in the data set on S. aureus 10 (setting [6]), 0%. Also, the “Survival Rate (%)” value with S. aureus 10 (setting [2]) was determined as 30%; in the data set with S. aureus 10 (setting [3]) it was 50%; with S. aureus 10 (setting [4]), 60%; in the data set on S. aureus 10 (setting [5]), 90%; with S. aureus 10 (setting [6]), 100%. The “Cytotoxic Activity IC50” value with HPF-hTERT stood at 0.6 µg/mL. This compound also yielded an IC50 at 72 h in data set [1] of 0.57 µg/mL.
